Source: patent US11298412B2, “Sphingoid compounds for prophylaxis and/or therapy of coronaviridae infection” (priority 2020, dated 2022)
Entries after “also recorded” stand apart in the source; their conditions may differ.

Tests used:
[1] = system: pp-VSV-SARS-CoV-2; test: Adhesion of pp-VSV-SARS-CoV-2 on Vero cells, flow cytometry with anti-spike S1; format: cell-based; details: 20 minutes infection in presence of lipid
[2] = system: lymphocytic choriomeningitis virus (LCMV); format: cell-based, LCMV strain WE; details: 24 hours
[3] = target: T1, recombinant ACE2 (Homo sapiens, UniProt Q9BYF1); test: Binding of lipids to immobilized recombinant ACE2; details: sphingosine at 2 μM
T1 construct: purchased Abcam ab273687

[4] = system: lymphocytic choriomeningitis virus (LCMV); format: cell-based, LCMV strain WE
[5] = system: vesicular stomatitis virus (VSV); format: cell-based, VSV strain Indiana; details: 24 hours

T1 sequence (Q9BYF1 18-805): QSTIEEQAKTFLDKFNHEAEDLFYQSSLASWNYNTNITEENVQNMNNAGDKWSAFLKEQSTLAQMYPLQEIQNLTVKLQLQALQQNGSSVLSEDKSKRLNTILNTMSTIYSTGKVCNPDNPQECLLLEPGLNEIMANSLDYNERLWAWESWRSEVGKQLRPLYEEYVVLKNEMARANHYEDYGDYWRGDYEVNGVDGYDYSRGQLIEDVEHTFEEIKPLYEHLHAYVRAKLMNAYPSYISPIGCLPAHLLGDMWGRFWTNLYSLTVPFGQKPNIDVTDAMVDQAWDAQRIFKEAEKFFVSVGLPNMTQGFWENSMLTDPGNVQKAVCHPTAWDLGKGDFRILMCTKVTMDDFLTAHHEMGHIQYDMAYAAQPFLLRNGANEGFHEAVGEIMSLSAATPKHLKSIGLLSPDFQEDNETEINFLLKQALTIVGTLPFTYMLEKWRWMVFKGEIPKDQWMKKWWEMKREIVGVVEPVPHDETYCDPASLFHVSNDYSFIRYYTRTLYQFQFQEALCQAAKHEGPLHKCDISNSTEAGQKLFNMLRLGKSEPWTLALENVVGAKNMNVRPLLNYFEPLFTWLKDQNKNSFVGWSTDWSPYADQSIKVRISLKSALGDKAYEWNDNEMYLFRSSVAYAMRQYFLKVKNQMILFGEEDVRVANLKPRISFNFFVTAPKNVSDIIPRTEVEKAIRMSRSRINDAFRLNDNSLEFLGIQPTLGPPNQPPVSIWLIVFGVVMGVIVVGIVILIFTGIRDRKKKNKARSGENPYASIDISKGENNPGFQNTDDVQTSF

| Compound | binding of pp-VSV-SARS-CoV-2 to the cell surface [1] | binding of lipid to immobilized recombinant ACE2 (beads) [3] | further results |
| --- | --- | --- | --- |
| CCCCCCCCCCCCC/C=C/[C@@H](O)[C@H](CO)NC(=O)CCCCCCCCCCCCCCC [C16-ceramide] | None of the other lipids had an effect | – | – |
| Oc1ccc(Nc2nc(-c3ccc(Cl)cc3)cs2)cc1 [SKII, [2-(p-hydroxyanilino)-4-(p-chlorophenyl)thiazole]] | – | – | spreading of the virus (LCMV-infected cells) [2]: inhibits spreading of the virus; also recorded: inhibits the spreading of the virus |
| CCCCCCCCCCCCC/C=C/[C@@H](O)[C@@H](N)COP(=O)(O)O [sphingosine 1-phosphate] | None of the other lipids had an effect | showed no interation with the beads | – |
| cardiolipin | None of the other lipids had an effect | showed no interation with the beads | – |
| ceramide | – | showed no interation with the beads | – |
| lactosyl-ceramide | None of the other lipids had an effect | – | – |
| phosphatidyl-ethanolamine | – | showed no interation with the beads | – |
| phosphatidylcholine | None of the other lipids had an effect | showed no interation with the beads | – |
| sphingomyelin | None of the other lipids had an effect | showed no interation with the beads | – |
| sphingomyelinase | – | – | propagation of LCMV (infectious LCMV particles in the supernatant) [4]: reduced propagation of LCMV; also recorded: inhibits the propagation of LCMV; propagation of VSV (number of plaques) [5]: inhibits the propagation of VSV |
